Molecules are shown by their SMILES. Like-named read-outs stand apart in the source and are kept apart here.

Our source for the inhibition, change in vivo and IC50 values is patent publication US5688787A, “Substituted β-lactam compounds useful as hypochlesterolemic agents and processes for the preparation thereof” (priority 1996, dated 1997).

One test concerns the target T1, ACAT (Rattus norvegicus, UniProt Q7TQM4).
T1 construct: Rat liver microsomes are used as the source of ACAT; from tissue; host or cells: rat liver microsomes
T1 sequence (Q7TQM4 1-524): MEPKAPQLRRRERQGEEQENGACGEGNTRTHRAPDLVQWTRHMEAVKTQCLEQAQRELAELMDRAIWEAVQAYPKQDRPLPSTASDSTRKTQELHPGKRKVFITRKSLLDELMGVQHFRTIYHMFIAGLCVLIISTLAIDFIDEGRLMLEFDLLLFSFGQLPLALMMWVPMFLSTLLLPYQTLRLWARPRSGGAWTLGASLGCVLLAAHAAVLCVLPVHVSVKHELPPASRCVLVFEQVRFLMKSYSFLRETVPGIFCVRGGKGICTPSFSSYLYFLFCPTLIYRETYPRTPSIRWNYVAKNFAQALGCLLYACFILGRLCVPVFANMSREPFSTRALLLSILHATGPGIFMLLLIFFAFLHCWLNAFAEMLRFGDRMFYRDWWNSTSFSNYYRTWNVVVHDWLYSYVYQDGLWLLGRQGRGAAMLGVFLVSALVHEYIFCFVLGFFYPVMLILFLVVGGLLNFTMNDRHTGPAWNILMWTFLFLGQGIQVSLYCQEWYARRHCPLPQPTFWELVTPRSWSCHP
Put plainly: ACAT Assay (in vitro). It counts as biochemical. The following applies: for inhibition at 10 µM: Conc. 10 µM, negative = apparent stimulation, read-out: ACAT (in vitro) % Inhib.; for IC50: rat liver microsomes, read-out: ACAT (in vitro) IC50.

Another test concerns Hyperlipidemic Hamster. Put plainly: In Vivo Assay of Hypolipidemic Agents Using the Hyperlipidemic Hamster. The settings on record: Mesocricetus auratus, po, 168 h; for change in vivo at 3 mg/kg: 3 mg/kg once daily oral; for change in vivo at 10 mg/kg: 10 mg/kg once daily oral. In outline:
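Hamsters, six per group, were fed chow with 0.5% cholesterol for seven days and given compound once daily by oral gavage in corn oil; controls received corn oil alone. Plasma (EDTA) and liver lipids were measured at sacrifice. Values are percent change versus control, so negative means lowering.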

The mark [1] stands for this setting: 50 mg/kg once daily oral, 7 days, percent change versus control, negative = lowering, read-out: % Reduction (in vivo) Cholest. Esters.
Where [2] appears, read: 50 mg/kg once daily oral, 7 days, percent change versus control, negative = lowering, read-out: % Reduction (in vivo) Serum Cholest.
Setting [3] is: 7 days, percent change versus control, negative = lowering, read-out: % Reduction (in vivo) Cholest. Esters.
Setting [4] is: 7 days, percent change versus control, negative = lowering, read-out: % Reduction (in vivo) Serum Cholest.

Consider `COc1ccc([C@@H]2[C@@H](N(C)CCc3ccccc3)C(=O)N2c2ccccc2)cc1` (relative stereo) [Example 5N], for which the inhibition at 10 µM on ACAT is -23%. The change in vivo at 50 mg/kg is -55% with Hyperlipidemic Hamster (setting [1]) and -17% in the test on Hyperlipidemic Hamster (setting [2]).

As to `COc1ccc(N2C(=O)[C@H](CCCc3ccccc3)[C@H]2c2ccoc2)cc1` (relative stereo) [Example 1BF], at ACAT, the inhibition at 10 µM is -17%. The figures for the change in vivo at 50 mg/kg with Hyperlipidemic Hamster (setting [1]) and with Hyperlipidemic Hamster (setting [2]) were -23% and 0%, respectively.

`CCOc1ccc(N2C(=O)[C@H](CCCc3ccccc3)[C@@H]2c2ccc(OC)cc2)cc1` (relative stereo) [Example 35B]: the inhibition at 10 µM on ACAT was determined as 65%. In addition, the values for the change in vivo at 50 mg/kg in the test with Hyperlipidemic Hamster (setting [1]) and in the test with Hyperlipidemic Hamster (setting [2]) were -99% and -53%, respectively.

As for `COc1ccc(N2C(=O)[C@@H](CCCc3ccccc3)[C@@H]2c2ccsc2)cc1` (relative stereo) [Example 1BP], the inhibition at 10 µM on ACAT came to 58%. Moreover, the change in vivo at 50 mg/kg is 0% with Hyperlipidemic Hamster (setting [1]) and -9% with Hyperlipidemic Hamster (setting [2]).

The IC50 is the midpoint of a concentration-inhibition curve. `COc1ccc(N2C(=O)[C@H](CCCc3ccccc3)[C@@H]2c2ccc(OCc3ccccc3)cc2)cc1` (relative stereo) [Example 1BN]: the IC50 on ACAT came to 7 µM. Besides, the change in vivo at 50 mg/kg in the test on Hyperlipidemic Hamster (setting [1]) was 0%; with Hyperlipidemic Hamster (setting [2]), -16%.

Consider `COc1ccc(C2N(c3ccc(OC)cc3)C(=O)C2(c2ccccc2)c2ccccc2)cc1` (stereo not shown) [Example 7AC], for which the inhibition at 10 µM at ACAT came to 31%. Further, the change in vivo at 50 mg/kg in the test with Hyperlipidemic Hamster (setting [1]) and with Hyperlipidemic Hamster (setting [2]) was 0% throughout.

Consider `CC[C@H]1C(=O)N(c2ccc(OC)cc2)[C@H]1c1ccc([N+](=O)[O-])cc1` (relative stereo) [Example 1AK], for which the inhibition at 10 µM at ACAT was -33%.

Turning to `COc1ccc([C@H]2[C@@H](CCCC3CCCCC3)C(=O)N2c2ccc(OC)cc2)cc1` (relative stereo) [Example 1CF], the inhibition at 10 µM at ACAT stood at 53%. The change in vivo at 50 mg/kg in the test on Hyperlipidemic Hamster (setting [1]) is -47%; in the test on Hyperlipidemic Hamster (setting [2]) it was -23%.

For the compound `COc1ccc(N2C(=O)[C@@H](CCCc3ccccc3)[C@H]2c2cccc(OC)c2)cc1` (relative stereo) [Example 1P], the inhibition at 10 µM at ACAT came out at 39%. For the same compound, the change in vivo at 50 mg/kg with Hyperlipidemic Hamster (setting [1]) is -54%; in the test on Hyperlipidemic Hamster (setting [2]) it was -19%.

`COc1ccc([C@@H]2N(c3ccc(OC)cc3)C(=O)[C@@]2(c2ccccc2)C2CCCC2)cc1` (relative stereo) [Example 7AD]: the inhibition at 10 µM at ACAT was -22%. Moreover, the change in vivo at 50 mg/kg with Hyperlipidemic Hamster (setting [1]) and with Hyperlipidemic Hamster (setting [2]) was -12% throughout.

Consider `COc1ccc(N2C(=O)[C@H](CCCc3ccccc3)[C@H]2c2ccc(OC)c(OC)c2)cc1` (relative stereo) [Example 5P], for which the inhibition at 10 µM on ACAT was determined as 53%. Besides, the change in vivo at 50 mg/kg was -33% in the test with Hyperlipidemic Hamster (setting [1]) and -11% in the test on Hyperlipidemic Hamster (setting [2]).

As for `CC[C@H]1C(=O)N(c2ccc(OC)cc2)[C@@H]1c1ccccc1` (relative stereo) [Example 1AD], the inhibition at 10 µM at ACAT is -5%.

Take `CC[C@@H]1C(=O)N(c2ccc(OC)cc2)[C@@H]1c1ccc(N)cc1` (relative stereo) [Example 8]: the inhibition at 10 µM on ACAT was -12%.

Take `CC[C@H]1C(=O)N(c2ccc(OC)cc2)[C@H]1c1ccccc1` (relative stereo) [Example 1AB]: at ACAT, the inhibition at 10 µM is 17%.

For `COc1ccc(N2C(=O)[C@@H](CCc3ccccc3)[C@@H]2c2ccccc2)cc1` (relative stereo) [Example 1E], the inhibition at 10 µM on ACAT came out at 3%.

In the case of `CC[C@]1(CCCc2ccccc2)C(=O)N(c2c(OC)cc(OC)cc2OC)[C@H]1C=Cc1ccccc1` (relative stereo) [Example 1J], on ACAT, the inhibition at 10 µM was 86% and the concentration for half-maximal inhibition (IC50) worked out at 3 µM.

Take `CC[C@H]1C(=O)N(c2ccc(OC)cc2)[C@H]1C=Cc1ccccc1` (relative stereo) [Example 1AF]: on ACAT, the inhibition at 10 µM was found to be 0%.

For the compound `CCCCCCCCCC[C@@]1(CC)C(=O)N(c2ccc(OC)cc2)[C@@H]1c1ccccc1` (stereo in doubt) [Example 3T], the inhibition at 10 µM at ACAT was -9%.

For `COc1ccc(N2C(=O)[C@H](C(C)C)[C@@H]2c2ccccc2)cc1` (relative stereo) [Example 1W], at ACAT, the inhibition at 10 µM was found to be 9%.

Consider `COc1ccc(N2C(=O)[C@H](c3ccccc3)[C@@H]2c2ccccc2)cc1` (relative stereo) [Example 4], for which, at ACAT, the inhibition at 10 µM came to 16%.

On to `CCCCCCCCCC[C@@]1(CCCc2ccccc2)C(=O)N(c2ccc(OC)cc2)[C@@H]1c1ccccc1` (relative stereo) [Example 3C], for which, on ACAT, the inhibition at 10 µM is -18%.

As to `COc1ccc(N2C(=O)[C@@H](C)[C@@H]2c2ccccc2)cc1` (relative stereo) [Example 1AI], the inhibition at 10 µM on ACAT amounted to 27%.

Regarding `COc1ccc(N2C(=O)[C@H](c3ccccc3)[C@H]2c2ccccc2)cc1` (relative stereo) [Example 1V], at ACAT, the inhibition at 10 µM was 64%.

With `CC[C@]1(c2ccccc2)C(=O)N(c2ccc(OC)cc2)[C@H]1c1ccccc1` (relative stereo) [Example 1AA], the inhibition at 10 µM on ACAT was -36%.

As for `COc1ccc(N2C(=O)[C@](Cc3ccccc3)(c3ccccc3)[C@@H]2c2ccccc2)cc1` (relative stereo) [Example 1Y], the inhibition at 10 µM at ACAT was found to be 50%.

`CC[C@H]1C(=O)N(c2c(OC)cc(OC)cc2OC)[C@H]1c1ccccc1` (relative stereo) [Example 1AE]: the inhibition at 10 µM at ACAT is -7%.

With `CC[C@@]1(CCCc2ccccc2)C(=O)N(c2c(OC)cc(OC)cc2OC)[C@H]1C=Cc1ccccc1` (relative stereo) [Example 1I], at ACAT, the inhibition at 10 µM turned out to be 81% and the concentration for half-maximal inhibition (IC50) was 4.5 µM.

As for `COc1ccc([C@@H]2[C@@H](/C=C\Cc3ccccc3)C(=O)N2c2ccc(OC)cc2)cc1` (relative stereo) [Example 7AI], the change in vivo at 3 mg/kg was -46% in the test on Hyperlipidemic Hamster (setting [3]) and -11% in the test on Hyperlipidemic Hamster (setting [4]). In addition, the change in vivo at 10 mg/kg was -73% with Hyperlipidemic Hamster (setting [3]) and -20% with Hyperlipidemic Hamster (setting [4]). The values for the change in vivo at 50 mg/kg in the test with Hyperlipidemic Hamster (setting [1]) and in the test with Hyperlipidemic Hamster (setting [2]) were -95% and -63%, respectively.

As for `COc1ccc(N2C(=O)[C@@H](C)[C@H]2c2ccccc2)cc1` (relative stereo) [Example 1AH], on ACAT, the inhibition at 10 µM stood at 4%.

Turning to `COc1ccc(N2C(=O)[C@H](CCCc3ccccc3)[C@H]2c2ccc(OC)cc2OC)cc1` (relative stereo) [Example 7X], the change in vivo at 50 mg/kg is -78% in the test with Hyperlipidemic Hamster (setting [1]) and -26% with Hyperlipidemic Hamster (setting [2]).

As to `COc1ccc([C@@H]2[C@H](N(C)CCc3ccccc3)C(=O)N2c2ccccc2)cc1` (relative stereo) [Example 7K], the results for the change in vivo at 50 mg/kg in the test on Hyperlipidemic Hamster (setting [1]) and in the test on Hyperlipidemic Hamster (setting [2]) were -32% and 0%, respectively.

In the case of `COc1ccc(N2C(=O)[C@@H](C(C)C)[C@@H]2c2ccccc2)cc1` (relative stereo) [Example 5A], the inhibition at 10 µM on ACAT is -70%.

In the case of `COc1ccc(CN[C@@H]2C(=O)N(c3ccccc3)[C@@H]2c2ccc(OC)cc2)cc1` (relative stereo) [Example 14A], the change in vivo at 50 mg/kg in the test with Hyperlipidemic Hamster (setting [1]) is -78%; in the test on Hyperlipidemic Hamster (setting [2]) it was 31%.

Take `COc1ccc(N2C(=O)[C@H](CCCc3ccccc3)[C@H]2c2nccn2COCC[Si](C)(C)C)cc1` (relative stereo) [Example 1AV]: the change in vivo at 50 mg/kg is 0% in the test on Hyperlipidemic Hamster (read-out: % Reduction (in vivo) Cholest. Esters) and 15% in the test with Hyperlipidemic Hamster (read-out: % Reduction (in vivo) Serum Cholest.).

As to `COc1ccc([C@@H]2[C@@H](CCOc3ccc([N+](=O)[O-])cc3)C(=O)N2c2ccccc2)cc1` (relative stereo) [Example 7AN], the change in vivo at 50 mg/kg is -42% in the test with Hyperlipidemic Hamster (setting [1]) and -12% in the test on Hyperlipidemic Hamster (setting [2]).

As to `COC(=O)c1ccc([C@@H]2[C@@H](CCCc3ccccc3)C(=O)N2c2ccccc2)cc1` (relative stereo) [Example 7R], the figures for the change in vivo at 50 mg/kg in the test with Hyperlipidemic Hamster (setting [1]) and in the test on Hyperlipidemic Hamster (setting [2]) were -80% and -35%, respectively.

With `COc1ccc(OCC[C@H]2C(=O)N(c3ccccc3)[C@@H]2c2ccc(OC)cc2)cc1` (relative stereo) [Example 7AP], the change in vivo at 50 mg/kg in the test on Hyperlipidemic Hamster (setting [1]) was -82%; with Hyperlipidemic Hamster (setting [2]), -24%.

`CCOC(=O)c1ccc([C@@H]2[C@@H](CCCc3ccccc3)C(=O)N2c2ccc(OC)cc2)cc1` (relative stereo) [Example 24A]: the change in vivo at 50 mg/kg in the test on Hyperlipidemic Hamster (setting [1]) is -76%; in the test on Hyperlipidemic Hamster (setting [2]) it was -21%.
